Results on 23 compounds are retold here after patent US10208081B2, “Bile acid derivatives as FXR/TGR5 agonists and methods of use thereof” (Enanta Pharmaceuticals, Inc., priority 2014, dated 2019).

In the experiment the target is human FXR (NR1H4) (Homo sapiens (Human), UniProt Q96RI1). Nature of the experiment: Human FXR (NR1H4) Assay (Gal4 promoter driven luciferase reporter, Indigo Bioscience kit IB00601). The settings on record: for Efficacy (%): efficacy normalized to CDCA set as 100%; for EC50: potency ranges. The class given is cell-based. The gist of the method:
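CHO reporter cells expressing human FXR with Gal4-driven, FXR-responsive luciferase treated with compound doses (0.2% DMSO) for 22 hours at 37° C. Luciferase luminescence then measured as surrogate of FXR activation for potency and efficacy.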
(Reporter assays use an easily measured gene product as a stand-in for the process of interest.)

human FXR (NR1H4), sequence (Q96RI1 whole entry, the tested form may be a part): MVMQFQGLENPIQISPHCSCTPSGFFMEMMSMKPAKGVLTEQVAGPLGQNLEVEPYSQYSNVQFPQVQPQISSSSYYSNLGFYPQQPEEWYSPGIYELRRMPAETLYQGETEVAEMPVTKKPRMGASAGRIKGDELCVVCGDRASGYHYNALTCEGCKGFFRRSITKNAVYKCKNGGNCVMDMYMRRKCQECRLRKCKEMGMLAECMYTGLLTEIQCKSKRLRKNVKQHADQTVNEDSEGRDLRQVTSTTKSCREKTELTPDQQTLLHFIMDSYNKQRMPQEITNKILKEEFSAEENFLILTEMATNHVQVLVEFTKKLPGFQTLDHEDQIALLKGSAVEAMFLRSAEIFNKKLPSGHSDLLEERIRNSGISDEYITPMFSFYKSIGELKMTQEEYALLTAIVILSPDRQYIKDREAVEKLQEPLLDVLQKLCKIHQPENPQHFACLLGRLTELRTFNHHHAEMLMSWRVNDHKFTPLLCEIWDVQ

The EC50 is the concentration at which the effect is half-maximal. High values mean weaker potency, low ones greater potency. Turning to `CC[C@H]1[C@@H](O)[C@@H]2[C@H](CC[C@]3(C)[C@@H]([C@H](C)CCNC(=O)NS(=O)(=O)Nc4ccc(C(C)(C)C)cc4)CC[C@@H]23)[C@@]2(C)CC[C@@H](O)C[C@@H]12` [Example 105], the “Efficacy (%)” value was determined as 322% and the EC50 is 100 to 1000 nM. Take `C[C@H](CCNC(=O)NS(=O)(=O)c1ccc(C(C)(C)C)cc1)[C@H]1CC[C@H]2[C@@H]3[C@H](O)C[C@@H]4C[C@H](O)CC[C@]4(C)[C@H]3CC[C@]12C` [Example 110]: the “Efficacy (%)” value stood at 320% and the EC50 lay in the range of 1000 to 10000 nM.

On to `CC[C@H]1[C@@H](O)[C@@H]2[C@H](CC[C@]3(C)[C@@H]([C@H](C)CNC(=O)NS(=O)(=O)c4ccc5c(c4)OCO5)CC[C@@H]23)[C@@]2(C)CC[C@@H](O)C[C@@H]12` [Example 117], for which the “Efficacy (%)” value is 305% and the EC50 was < 100 nM. As for `CC[C@H]1[C@@H](O)[C@@H]2[C@H](CC[C@]3(C)[C@@H]([C@H](C)CCNC(=O)NS(=O)(=O)c4ccc(C(C)(C)C)s4)CC[C@@H]23)[C@@]2(C)CC[C@@H](O)C[C@@H]12` [Example 111], the “Efficacy (%)” value came to 314% and the EC50 was < 100 nM.

Turning to `CC[C@H]1[C@@H](O)[C@@H]2[C@H](CC[C@]3(C)[C@@H]([C@H](C)CCNC(=O)NS(=O)(=O)N4[C@H](C)CCC[C@@H]4C)CC[C@@H]23)[C@@]2(C)CC[C@@H](O)C[C@@H]12` [Example 96], the “Efficacy (%)” value amounted to 387% and the EC50 is < 100 nM. The like results for `CC[C@H]1[C@@H](O)[C@@H]2[C@H](CC[C@]3(C)[C@@H]([C@H](C)CCNC(=O)NS(=O)(=O)c4cc(F)cc(F)c4)CC[C@@H]23)[C@@]2(C)CC[C@@H](O)C[C@@H]12` [Example 102] were, in that order, 210% and < 100 nM. The like results for `CC[C@H]1[C@@H](O)[C@@H]2[C@H](CC[C@]3(C)[C@@H]([C@H](C)CCNC(=O)NS(=O)(=O)C4CCCC4)CC[C@@H]23)[C@@]2(C)CC[C@@H](O)C[C@@H]12` [Example 27] were, in that order, 275% and < 100 nM. In the case of `CC[C@H]1[C@@H](O)[C@@H]2[C@H](CC[C@]3(C)[C@@H]([C@H](C)CCNC(=O)NS(=O)(=O)N4CCN(C(=O)C(C)(C)C)CC4)CC[C@@H]23)[C@@]2(C)CC[C@@H](O)C[C@@H]12` [Example 85], the “Efficacy (%)” value is recorded as 324% and the EC50 lay within 100 to 1000 nM. `CC[C@H]1[C@@H](O)[C@@H]2[C@H](CC[C@]3(C)[C@@H]([C@H](C)CCNC(=O)NS(=O)(=O)N4CCS(=O)(=O)CC4)CC[C@@H]23)[C@@]2(C)CC[C@@H](O)C[C@@H]12` [Example 83]: the “Efficacy (%)” value is recorded as 348% and the EC50 was in the range of 1000 to 10000 nM. For the compound `CC[C@H]1[C@@H](O)[C@@H]2[C@H](CC[C@]3(C)[C@@H]([C@H](C)CCNC(=O)NS(=O)(=O)N4CCCCC4)CC[C@@H]23)[C@@]2(C)CC[C@@H](O)C[C@@H]12` [Example 39], the “Efficacy (%)” value stood at 379% and the concentration for a half-maximal effect (EC50) is < 100 nM. On to `CC[C@H]1[C@@H](O)[C@@H]2[C@H](CC[C@]3(C)[C@@H]([C@H](C)CCNC(=O)NS(=O)(=O)c4ccc(C(C)(C)C(=O)OC)cc4)CC[C@@H]23)[C@@]2(C)CC[C@@H](O)C[C@@H]12` [Example 70], for which the “Efficacy (%)” value is given as 434% and the concentration for a half-maximal effect (EC50) is < 100 nM.

Consider `CC[C@H]1[C@@H](O)[C@@H]2[C@H](CC[C@]3(C)[C@@H]([C@H](C)CCNC(=O)NS(=O)(=O)c4ccc(-c5csc(C)n5)cc4)CC[C@@H]23)[C@@]2(C)CC[C@@H](O)C[C@@H]12` [Example 71], for which the “Efficacy (%)” value was found to be 419% and the EC50 was 100 to 1000 nM. Regarding `CC[C@H]1[C@@H](O)[C@@H]2[C@H](CC[C@]3(C)[C@@H]([C@H](C)CCNC(=O)NS(=O)(=O)c4ccc(-c5ccno5)cc4OC)CC[C@@H]23)[C@@]2(C)CC[C@@H](O)C[C@@H]12` [Example 73], the “Efficacy (%)” value was determined as 444% and the EC50 fell in the range of 100 to 1000 nM.

With `CC[C@H]1[C@@H](O)[C@@H]2[C@H](CC[C@]3(C)[C@@H]([C@H](C)CCCNC(=O)NS(=O)(=O)C4CC4)CC[C@@H]23)[C@@]2(C)CC[C@@H](O)C[C@@H]12` [Example 20], the “Efficacy (%)” value was 334% and the EC50 fell in the range of 100 to 1000 nM. The like results for `CC[C@H]1[C@@H](O)[C@@H]2[C@H](CC[C@]3(C)[C@@H]([C@H](C)CCNC(=O)NS(=O)(=O)c4nccs4)CC[C@@H]23)[C@@]2(C)CC[C@@H](O)C[C@@H]12` [Example 100] were, in that order, 364% and 1000 to 10000 nM.

As for `CC[C@H]1[C@@H](O)[C@@H]2[C@H](CC[C@]3(C)[C@@H]([C@H](C)CNC(=O)NS(=O)(=O)c4ccc(C5CCCCC5)cc4)CC[C@@H]23)[C@@]2(C)CC[C@@H](O)C[C@@H]12` [Example 113], the “Efficacy (%)” value stood at 366% and the half-maximal effective concentration (EC50) was < 100 nM. For the compound `CC[C@H]1[C@@H](O)[C@@H]2[C@H](CC[C@]3(C)[C@@H]([C@H](C)CCNC(=O)NS(=O)(=O)N4CCC5(CC4)CC5)CC[C@@H]23)[C@@]2(C)CC[C@@H](O)C[C@@H]12` [Example 86], the “Efficacy (%)” value amounted to 390% and the EC50 was < 100 nM.

Turning to `CC[C@H]1[C@@H](O)[C@@H]2[C@H](CC[C@]3(C)[C@@H]([C@H](C)CNS(=O)(=O)C(C)(C)C)CC[C@@H]23)[C@@]2(C)CC[C@@H](O)C[C@@H]12` [Example 143], the “Efficacy (%)” value is on record as 6%. On the same count and under the same terms, for `CC[C@H]1[C@@H](O)[C@@H]2[C@H](CC[C@]3(C)[C@@H]([C@H](C)CCNS(=O)(=O)c4ccc(C(C)(C)C)s4)CC[C@@H]23)[C@@]2(C)CC[C@@H](O)C[C@@H]12` [Example 134] the value was 19%. `CC[C@H]1[C@@H](O)[C@@H]2[C@H](CC[C@]3(C)[C@@H]([C@H](C)CCCCNS(=O)(=O)C(C)(C)C)CC[C@@H]23)[C@@]2(C)CC[C@@H](O)C[C@@H]12` [Example 136]: the “Efficacy (%)” value turned out to be 159% and the concentration for a half-maximal effect (EC50) is 1000 to 10000 nM. Regarding `CC[C@H]1[C@@H](O)[C@@H]2[C@H](CC[C@]3(C)[C@@H]([C@H](C)CCNC(=O)NS(=O)(=O)c4ccc(N(C)C)cc4)CC[C@@H]23)[C@@]2(C)CC[C@@H](O)C[C@@H]12` [Example 119], the “Efficacy (%)” value was determined as 363% and the EC50 is < 100 nM. Take `CC[C@H]1[C@@H](O)[C@@H]2[C@H](CC[C@]3(C)[C@@H]([C@H](C)CCNC(=O)NS(=O)(=O)c4ccc(-c5ccno5)cc4C)CC[C@@H]23)[C@@]2(C)CC[C@@H](O)C[C@@H]12` [Example 72]: the “Efficacy (%)” value is on record as 384% and the EC50 is 100 to 1000 nM. Consider `CC[C@H]1[C@@H](O)[C@@H]2[C@H](CC[C@]3(C)[C@@H]([C@H](C)CCNC(=O)NS(=O)(=O)c4cc(F)cc(OC)c4)CC[C@@H]23)[C@@]2(C)CC[C@@H](O)C[C@@H]12` [Example 103], for which the “Efficacy (%)” value is reported as 328% and the EC50 was < 100 nM.
